Experimental data published in US20110143948A1, “MOLECULAR SIGNATURES AND BIOMARKERS ASSOCIATED WITH MELANOMA AND METHODS OF USE THEREOF” (priority 2008, published 2011).

Tested on: ncRNAs (SEQ ID NO 28-89)
Assay: ncRNA arrays of melanocytes, keratinocytes, normal skin, melanoma cell lines and patient samples
Set-up: species or system human
Conditions: for ncRNA array expression, patient 2: melanoma patient 2 sample compared to normal skin; for ncRNA array expression, patient 3: melanoma patient 3 sample compared to normal skin; for ncRNA array expression, patient 4: melanoma patient 4 sample compared to normal skin; for ncRNA array expression, patient 5: melanoma patient 5 sample compared to normal skin; for ncRNA array expression, patient 6: melanoma patient 6 sample compared to normal skin; for ncRNA array expression, patient 7: melanoma patient 7 sample compared to normal skin; for ncRNA array expression, patient 8: melanoma patient 8 sample compared to normal skin; for ncRNA array expression, patient 9: melanoma patient 9 sample compared to normal skin; for ncRNA array expression, patient 10: melanoma patient 10 sample compared to normal skin; for ncRNA array expression, patient 19: melanoma patient 19 sample compared to normal skin; for ncRNA array expression, patient 20: melanoma patient 20 sample compared to normal skin; for ncRNA array expression, patient 21: melanoma patient 21 sample compared to normal skin; for ncRNA array expression, patient 22: melanoma patient 22 sample compared to normal skin; for ncRNA array expression, patient 23: melanoma patient 23 sample compared to normal skin; for ncRNA array expression, patient 24: melanoma patient 24 sample compared to normal skin; for ncRNA array expression, patient 25: melanoma patient 25 sample compared to normal skin; for ncRNA array expression, patient 26: melanoma patient 26 sample compared to normal skin; for ncRNA array expression, patient 27: melanoma patient 27 sample compared to normal skin; for ncRNA array expression, patient 28: melanoma patient 28 sample compared to normal skin; for ncRNA array expression, patient 29: melanoma patient 29 sample compared to normal skin; for ncRNA array expression, patient 30: melanoma patient 30 sample compared to normal skin
In short: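 Differential ncRNA expression was defined against melanocytes or normal skin after subtracting keratinocyte-specific signals, with confirmation by qRT-PCR and Northern blot. Samples were melanoma cell lines, patient tumours, melanocytes, keratinocytes and normal skin, hybridised to a >10,000-probe (>200 nt) ncRNA array that also carries RefSeq mRNA probes.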

Substance | ncRNA array expression, patient 2 | ncRNA array expression, patient 3 | ncRNA array expression, patient 4 | ncRNA array expression, patient 5 | ncRNA array expression, patient 6 | ncRNA array expression, patient 7 | ncRNA array expression, patient 8 | ncRNA array expression, patient 9 | ncRNA array expression, patient 10 | ncRNA array expression, patient 19 | ncRNA array expression, patient 20 | ncRNA array expression, patient 21 | ncRNA array expression, patient 22 | ncRNA array expression, patient 23 | ncRNA array expression, patient 24 | ncRNA array expression, patient 25 | ncRNA array expression, patient 26 | ncRNA array expression, patient 27 | ncRNA array expression, patient 28 | ncRNA array expression, patient 29 | further results
SEQ ID NO 80 (CACACAGCCCAGTCTGCCTGTGATGGTAATATAAATCAAACCAGGGACCCAAGAGCCCAG; listed as DNA, chemistry not given here; listed as Homo sapiens) | −1.594 | −1.487 | −1.4489 | −1.208 | −0.982 | −1.213 | −1.338 | −1.383 | −1.815 | −1.234 | −2.056 | −1.5287 | −0.7073 | −0.1143 | −1.175 | −1.992 | −1.983 | −1.665 | −1.4589 | −1.489 | ncRNA array expression, patient 30: 0.1296
SEQ ID NO 81 (CTAGGGGCGGAGTTTCTCGTAAGGGGCAAGGCCAAGGCATCTTGTATTGGGGCTGACAGG; listed as DNA, chemistry not given here; listed as Homo sapiens) | −2.704 | −2.664 | −2.74 | −2.515 | −1.776 | −2.533 | −2.25 | −2.579 | −3.027 | −2.079 | −2.527 | −2.568 | −1.3874 | −1.288 | −2.451 | −2.889 | −3.081 | −2.77 | −2.666 | −2.727 | ncRNA array expression, patient 30: 2.229
SEQ ID NO 82 (GAAGTCAGAAACTAAAGTTCCCTTCTAAGACAAAATCCTGCTTTGGAGAAAAAAAAAAAT; listed as DNA, chemistry not given here; listed as Homo sapiens) | −3.153 | −2.943 | −3.11 | −2.733 | −1.179 | −3.133 | −2.955 | −3.056 | −3.4499 | −3.347 | −3.111 | −3.1409 | −2.791 | −3.009 | −3.02 | −3.428 | −3.448 | −3.18 | −3.348 | −3.301 | ncRNA array expression, patient 30: −2.485
SEQ ID NO 83 (TCAGTTTGATGATTGGGCTAGGGAATGAAGCTTTGCCACTTAGGAGATAAACCCCATAAC; listed as DNA, chemistry not given here; listed as Homo sapiens) | −1.488 | −1.164 | −1.691 | −1.156 | −0.6047 | −0.9496 | −0.9534 | −1.016 | −1.381 | −1.6448 | −1.228 | −1.45 | −1.116 | −1.855 | −1.066 | −1.422 | −1.405 | −1.43 | −1.28 | −1.1118 | ncRNA array expression, patient 30: −1.73
SEQ ID NO 84 (TTATTAAAAGGACTGAGGATCATGTGTGTTGGTGTGTCCCGGAGTCTGCTCTAAGGTAAA; listed as DNA, chemistry not given here; listed as Homo sapiens) | 1.997 | 1.789 | 1.046 | 0.9959 | 0.3741 | 2.005 | 1.104 | 1.55 | 0.2561 | 1.044 | 1.668 | 1.56 | 2.01 | 2.078 | 1.532 | 1.329 | 1.373 | 1.88 | 1.062 | 1.558 | ncRNA array expression, patient 30: 1.105
SEQ ID NO 85 (TGAGGGGAGAGGGGATGGGAAACATTAGGGCTGGGTTCATGTAAAGGGACCAGCATTGTG; listed as DNA, chemistry not given here; listed as Homo sapiens) | −3.042 | −2.236 | −3.353 | −3.144 | −1.878 | −3.331 | −3.241 | −3.15 | −2.88 | −2.497 | −3.4136 | −3.4 | −1.235 | −0.784 | −3.14 | −3.2 | −3.139 | −3.328 | −3.261 | −3.3212 | ncRNA array expression, patient 30: 0.6346
SEQ ID NO 86 (AAAATTATTTTATCTTAAGTTTCCATTTAGTTGATTAAAAATAGGGTTATGAATGTTAAA; listed as DNA, chemistry not given here; listed as Homo sapiens) | 2.021 | 1.628 | 5.076 | −0.09781 | −0.05485 | −0.1079 | 0.751 | 0.02401 | 1.097 | 1.409 | 0.8906 | 1.056 | −0.01773 | −0.00853 | 2.72 | 3.621 | 3.088 | 5.119 | −0.07222 | −0.07156 | ncRNA array expression, patient 30: 1.029
SEQ ID NO 87 (GGGATATTTTTAAGGGGAAGGGGAAGGATAGAGAGAAAGTGCAGGCAGGGCTGGGGTCTG; listed as DNA, chemistry not given here; listed as Homo sapiens) | −2.131 | −1.6373 | −2.999 | −2.972 | −2.3216 | −2.468 | −2.76 | −1.536 | −1.881 | −0.8262 | −1.935 | −2.079 | −1.312 | −2 | −3.011 | −2.33 | −2.364 | −2.214 | −2.17 | −2.373 | ncRNA array expression, patient 30: 0.7984
